The subject of series [1] is Monochoria vaginalis (Murm. f.) Presl var. plantaginea (Roxb.) Solms-Laub. Kind of series: Herbicidal effect by paddy field soil treatment. Type of series: in vivo. Also on record: scale not given here. Conditions: wettable powder, active ingredient 1000 g/ha, examined at the 21st day from the treatment. A digest of the protocol:
(§1)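 Seeds sown in puddled paddy soil under 3 cm of water; the next day wettable powders diluted in water were dropped onto the water surface at 1,000 g active ingredient/ha. Plants grown in a greenhouse, with herbicidal effect scored on day 21 against a rating standard.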

Series [2] relates to Echinochloa oryzicola Vasing. Kind of series: Herbicidal effect by paddy field soil treatment. Type of series: in vivo. Set-up: scale not given here. The conditions noted are these: wettable powder, active ingredient 1000 g/ha, examined at the 21st day from the treatment. The gist of the method: as §1
Series [3] has as its system Setaria viridis (L.) Beauv. As to the kind of experiment: Herbicidal effect by upland field soil treatment. Conditions: active ingredient 1000 g/ha, examined at 21st day from treatment. Set-up: scale not given here. The series is classed as in vivo. From the text:
(§2) An upland field soil was filled in a plastic pot of 80 cm^2. Seeds of Echinochloa crus-galli (L.) Beauv. var. crusgalli and Setaria viridis (L.) Beauv. were sowed, followed by covering with the same soil. […] Then, breeding was made in a greenhouse, and the herbicidal effect of each wettable powder was examined at the 21st day from the treatment in accordance with the standard shown in Table 21.

Series [4] relates to Echinochloa crus-galli (L.) Beauv. var. crusgalli. Kind of series: Herbicidal effect by upland field soil treatment. The series is classed as in vivo. Also on record: scale not given here. Conditions: active ingredient 1000 g/ha, examined at 21st day from treatment.
Text: as §2

The subject of series [5] is Echinochloa crus-galli (L.) Beauv. var. crus-galli. Kind of series: Herbicidal effect by upland foliage treatment. Conditions: active ingredient 1000 g/ha, examined at 14th day from treatment. Also on record: scale not given here. Type of series: in vivo. The gist of the method: (§3)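 Two-week-old greenhouse plants in sand were sprayed over the whole foliage with water-diluted wettable powder at 1,000 liters per hectare, giving 1,000 g active ingredient per hectare. Herbicidal effect scored on a rating standard at day 14 after treatment.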

The subject of series [6] is Setaria viridis (L.) Beauv. Kind of series: Herbicidal effect by upland foliage treatment. Type of series: in vivo. Set-up: scale not given here. Conditions: active ingredient 1000 g/ha, examined at 14th day from treatment. A digest of the protocol: as §3

In general, melting point refers to the temperature of the solid-liquid transition.

As to `Cn1nc(C(F)(F)F)c(CS(=O)(=O)C2=NOC(C)(C)C2)c1C#N` [3-0016, 3-(5-cyano-1-methyl-3-trifluoromethyl-1H-pyrazol-4-ylmethylsulfonyl)-5,5-dimethyl-2-isoxazoline], the melting point lay within 105 to 108 °C. Moreover, the “Herbicidal effect index, Monochoria vaginalis (Burm. F.) Presl var. plantaginea (Roxb.) Solms-Laub.” value (“Herbicidal effect index … (Roxb.) Solms-Laub.” below) in series [1] was found to be 5. In series [2], the “Herbicidal effect index, Echinochloa oryzicola Vasing” value worked out at 5. Further, the “herbicidal effect (index per standard of Table 21), Setaria viridis (L.) Beauv.” value in series [3] is 5. Also, the “herbicidal effect (index per standard of Table 21), Echinochloa curs-galli (L.) Beauv. Var. crus-galli” value in series [4] is 5.

In turn, `CC1(C)CC(S(=O)(=O)Cc2c(C(F)(F)F)nn3c2OCCC3)=NO1` [3-0019, 3-(5,5-dimethyl-2-isoxazolin-3-ylsulfonylmethyl)-2-trifluoromethyl-6,7-dihydro-5H-pyrazolo[5,1-b][1,3]oxazine] returned a melting point of 151 to 152 °C. In addition, the “herbicidal effect (index per standard of Table 21), Setaria viridis (L.) Beauv.” value in series [3] stood at 5. For the same compound, the “herbicidal effect (index per standard of Table 21), Echinochloa curs-galli (L.) Beauv. Var. crus-galli” value in series [4] worked out at 5.

For the compound `CC1(C)CC(S(=O)(=O)Cc2c(Cl)nn(C(F)F)c2C(F)(F)F)=NO1` [3-0011, 3-(3-chloro-1-difluoromethyl-5-trifluoromethyl-1H-pyrazol-4-ylmethylsulfonyl)-5,5-dimethyl-2-isoxazoline], the melting point is 136 to 137 °C. For the same compound, in series [5], the “herbicidal effect (index per standard of Table 21), Echinochloa curs-galli (L.) Beauv. Var. crus-galli” value turned out to be 5. For the same compound, in series [6], the “herbicidal effect (index per standard of Table 21), Setaria viridis (L.) Beauv.” value is reported as 4.

In turn, `CC1(C)CC(S(=O)(=O)Cc2cnccc2C(F)(F)F)=NO1` [7-0001, 5,5-dimethyl-3-(4-trifluoromethyl-pyridin-3-ylmethylsulfonyl)-2-isoxazoline] yielded a melting point of 77 to 80 °C.

Consider `CCn1nc(Cl)c(CS(=O)(=O)C2=NOC(C)(C)C2)c1Cl` [3-0017, 3-(3,5-dichloro-1-ethyl-1H-pyrazol-4-ylmethylsulfonyl)-5,5-dimethyl-2-isoxazoline], for which the melting point was in the range of 105 to 107 °C. Moreover, the “herbicidal effect (index per standard of Table 21), Setaria viridis (L.) Beauv.” value in series [3] is given as 5. Also, in series [4], the “herbicidal effect (index per standard of Table 21), Echinochloa curs-galli (L.) Beauv. Var. crus-galli” value is on record as 5.

As to `CC1(C)CC(S(=O)(=O)Cc2c(C(F)(F)F)nn(C(F)F)c2Cl)=NO1` [3-0010, 3-(5-chloro-1-difluoromethyl-3-trifluoromethyl-1H-pyrazol-4-ylmethylsulfonyl)-5,5-dimethyl-2-isoxazoline], the melting point lay within 126 to 127 °C. In series [5], the “herbicidal effect (index per standard of Table 21), Echinochloa curs-galli (L.) Beauv. Var. crus-galli” value is listed as 5. Also, in series [6], the “herbicidal effect (index per standard of Table 21), Setaria viridis (L.) Beauv.” value was found to be 4.

In turn, `CC1(C)CC(SCc2c(C(F)(F)F)nn(C(C)(C)C)c2Cl)=NO1` [3-0006, 3-(1-tert-butyl-5-chloro-3-trifluoromethyl-1H-pyrazol-4-ylmethylthio)-5,5-dimethyl-2-isoxazoline] showed a melting point of 79 to 81 °C. Moreover, the “herbicidal effect (index per standard of Table 21), Setaria viridis (L.) Beauv.” value in series [3] is recorded as 4. The “herbicidal effect (index per standard of Table 21), Echinochloa curs-galli (L.) Beauv. Var. crus-galli” value in series [4] amounted to 4.

As to `CC1(C)CC(SCc2c(C(F)(F)F)n[nH]c2Cl)=NO1` [3-0007, 3-(5-chloro-3-trifluoromethyl-1H-pyrazol-4-ylmethylthio)-5,5-dimethyl-2-isoxazoline], the melting point lay in the range of 120 to 122 °C.

With `CC1(C)CC(S(=O)(=O)Cc2c(C(F)(F)F)nn(-c3ccccc3)c2Cl)=NO1` [3-0002, 3-(5-chloro-1-phenyl-3-trifluoromethyl-1H-pyrazol-4-ylmethylsulfonyl)-5,5-dimethyl-2-isoxazoline], the melting point lay within 132 to 133 °C. Moreover, the “Herbicidal effect index … (Roxb.) Solms-Laub.” value in series [1] is on record as 5. In addition, the “Herbicidal effect index, Echinochloa oryzicola Vasing” value in series [2] amounted to 5. Further, the “herbicidal effect (index per standard of Table 21), Setaria viridis (L.) Beauv.” value in series [3] is given as 5. Moreover, in series [4], the “herbicidal effect (index per standard of Table 21), Echinochloa curs-galli (L.) Beauv. Var. crus-galli” value was found to be 5.

The compound `CCS(=O)(=O)c1c(CS(=O)(=O)C2=NOC(C)(C)C2)c(C(F)(F)F)nn1-c1ccccc1` [3-0004, 5,5-dimethyl-3-(5-ethylsulfonyl-1-phenyl-3-trifluoromethyl-1H-pyrazol-4-ylmethylsulfonyl)-2-isoxazoline] yielded a melting point of 158 to 160 °C. Also, in series [1], the “Herbicidal effect index … (Roxb.) Solms-Laub.” value is recorded as 5. Moreover, in series [2], the “Herbicidal effect index, Echinochloa oryzicola Vasing” value is 5. In addition, in series [3], the “herbicidal effect (index per standard of Table 21), Setaria viridis (L.) Beauv.” value amounted to 5. Further, the “herbicidal effect (index per standard of Table 21), Echinochloa curs-galli (L.) Beauv. Var. crus-galli” value in series [4] is listed as 5.

For `Cn1nc(C(F)(F)F)c(CS(=O)(=O)C2=NOC(C)(C)C2)c1Oc1ccccc1Cl` [3-0014, 3-(5-(2-chlorophenoxy)-1-methyl-3-trifluoromethyl-1H-pyrazol-4-ylmethylsulfonyl)-5,5-dimethyl-2-isoxazoline], the melting point lay in the range of 67 to 70 °C. For the same compound, the “Herbicidal effect index … (Roxb.) Solms-Laub.” value in series [1] worked out at 5. Besides, the “Herbicidal effect index, Echinochloa oryzicola Vasing” value in series [2] is recorded as 5.

`CC1(C)CC(SCc2c(C(F)(F)F)nn(C(F)F)c2Cl)=NO1` [3-0008, 3-(5-chloro-1-difluoromethyl-3-trifluoromethyl-1H-pyrazol-4-ylmethylthio)-5,5-dimethyl-2-isoxazoline]: the melting point fell in the range of 41 to 42 °C. Besides, the “herbicidal effect (index per standard of Table 21), Echinochloa curs-galli (L.) Beauv. Var. crus-galli” value in series [5] came out at 4. Moreover, in series [6], the “herbicidal effect (index per standard of Table 21), Setaria viridis (L.) Beauv.” value is on record as 4. For the same compound, the “herbicidal effect (index per standard of Table 21), Setaria viridis (L.) Beauv.” value in series [3] came to 5. Also, the “herbicidal effect (index per standard of Table 21), Echinochloa curs-galli (L.) Beauv. Var. crus-galli” value in series [4] was determined as 5.

With `CC1(C)CC(SCc2c(Cl)nn(C(F)F)c2C(F)(F)F)=NO1` [3-0009, 3-(3-chloro-1-difluoromethyl-5-trifluoromethyl-1H-pyrazol-4-ylmethylthio)-5,5-dimethyl-2-isoxazoline], the melting point was 89 to 90 °C. Also, the “Herbicidal effect index … (Roxb.) Solms-Laub.” value in series [1] worked out at 5. Also, the “Herbicidal effect index, Echinochloa oryzicola Vasing” value in series [2] is given as 5. Moreover, the “herbicidal effect (index per standard of Table 21), Setaria viridis (L.) Beauv.” value in series [3] amounted to 5. In addition, the “herbicidal effect (index per standard of Table 21), Echinochloa curs-galli (L.) Beauv. Var. crus-galli” value in series [4] was found to be 5.

In the case of `CN(C)c1c(CS(=O)(=O)C2=NOC(C)(C)C2)c(C(F)(F)F)nn1-c1ccccc1` [3-0005, 5,5-dimethyl-3-(5-dimethylamino-1-phenyl-3-trifluoromethyl-1H-pyrazol-4-ylmethylsulfonyl)-2-isoxazoline], the melting point is 150 to 151 °C.

Compound `CC1(C)CC(SCc2c(C(F)(F)F)nn(-c3ccccc3)c2Cl)=NO1` [3-0001, 3-(5-chloro-1-phenyl-3-trifluoromethyl-1H-pyrazol-4-ylmethylthio)-5,5-dimethyl-2-isoxazoline] returned a melting point of 89 to 90 °C.

For `CC1(C)CC(S(=O)(=O)Cc2c(Cl)nn(CC(F)F)c2C(F)(F)F)=NO1` [3-0115], the “herbicidal effect (index per standard of Table 21), Echinochloa curs-galli (L.) Beauv. Var. crus-galli” value in series [5] and in series [4] was 5 throughout. The figures for the “herbicidal effect (index per standard of Table 21), Setaria viridis (L.) Beauv.” value in series [6] and in series [3] were 4 and 5, respectively. Also, in series [1], the “Herbicidal effect index … (Roxb.) Solms-Laub.” value was determined as 5. Besides, the “Herbicidal effect index, Echinochloa oryzicola Vasing” value in series [2] is on record as 5.

For `CC(C)Cn1nc(Cl)c(CS(=O)(=O)C2=NOC(C)(C)C2)c1C(F)(F)F` [3-0084], the results for the “herbicidal effect (index per standard of Table 21), Echinochloa curs-galli (L.) Beauv. Var. crus-galli” value in series [5] and in series [4] were 4 and 5, respectively. In addition, the “herbicidal effect (index per standard of Table 21), Setaria viridis (L.) Beauv.” value in series [6] is on record as 4; in series [3], 5. Also, the “Herbicidal effect index … (Roxb.) Solms-Laub.” value in series [1] stood at 5. The “Herbicidal effect index, Echinochloa oryzicola Vasing” value in series [2] is 5.

Take `CCOc1nn(C)c(C(F)(F)F)c1CS(=O)(=O)C1=NOC(C)(C)C1` [3-0012, 5,5-dimethyl-3-(3-ethoxy-1-methyl-5-trifluoromethyl-1H-pyrazol-4-ylmethylsulfonyl)-2-isoxazoline]: the melting point is 124 to 125 °C. Also, the “herbicidal effect (index per standard of Table 21), Setaria viridis (L.) Beauv.” value in series [3] amounted to 5. For the same compound, the “herbicidal effect (index per standard of Table 21), Echinochloa curs-galli (L.) Beauv. Var. crus-galli” value in series [4] came out at 5.

Consider `Cn1nc(C(F)F)c(CS(=O)(=O)C2=NOC(C)(C)C2)c1Cl` [3-0018, 3-(5-chloro-3-difluoromethyl-1-methyl-1H-pyrazol-4-ylmethylsulfonyl)-5,5-dimethyl-2-isoxazoline], for which the melting point lay in the range of 78 to 79 °C. Also, the “herbicidal effect (index per standard of Table 21), Setaria viridis (L.) Beauv.” value in series [3] worked out at 5. Also, the “herbicidal effect (index per standard of Table 21), Echinochloa curs-galli (L.) Beauv. Var. crus-galli” value in series [4] is listed as 5.
